In assay [1] the test system is IMiD/CELMoD resistant cell line DF-15R. The assay is described as follows: Rescue of chronically stimulated anti-BCMA CAR T cells rechallenged with DF-15R. In kind it is cell-based. The conditions noted are these: rechallenge with DF-15R. The method, then:
Cytolytic activity and cytokine production following the rechallenge were assessed as described above.

For assay [2], the system named is A549.CD19 tumor spheroids. The experiment in a line: A549.CD19 tumor spheroid model, rescue treatment after chronic stimulation. Type of assay: cell-based, human. How it is done:
An A549.CD19 tumor spheroid model was further used to elucidate the T cell modulatory activity of the compounds. A549.CD19 tumor spheroid growth is insensitive to monotherapy treatment with the immunomodulatory compounds. […] Averaged measurement of tumor spheroid size at Day 9 following co-culture with CAR-T cells was assessed. […] The log 2 fold change compared to control cells (chronically stimulated cells that had not been concurrently treated with immunomodulatory compound) is shown in FIG. 50B.

Another assay concerns phosphorylated STAT5. The experiment in a line: Phosphorylated STAT5 in CAR T cells incubated with conditioned supernatants. To be noted: both concentrations used. Type of assay: cell-based, human. How it is done:
Conditioned supernatants from stimulated CAR T cultures were harvested after overnight treatment and incubated with freshly thawed CAR T cells from three donors alone or in the presence of a blocking IL-2 antibody. After short term stimulation, CAR T cells were then assessed by flow cytometry for phosphorylated STAT5.

The target of another assay is T1, Ikaros (Homo sapiens, UniProt Q13422+Q96SW2).
T1 construct: intracellular levels of Ikaros in CD4+ CAR+ or CD8+ CAR+ cells; endogenous in cells; host or cells: primary human CD4+ and CD8+ T cells transduced with an anti-CD19 CAR (FMC63 scFv)
The assay is described as follows: Intracellular Ikaros expression (flow cytometry MFI) in anti-CD19 CAR-expressing T cells after overnight incubation. In kind it is cell-based. The method, then:
Transduced populations then were separately incubated in the presence of stimulating reagents for cell expansion.
(Flow cytometry measures light scatter and fluorescence of single cells or particles in a stream.)

The test system of the next assay is MM1.S cells. The experiment in a line: Serial restimulation of anti-BCMA CAR+ T cells with irradiated MM1.S target cells. In kind it is cell-based, human. Set-up: CAR-T expansion, each of six donors: dose or concentration left out as unconfirmed. The method, then: Anti-BCMA CAR+ T cells generated as described above were plated in triplicate at […] cells/well on 96-well plates.
Every 3-4 days (start of each new round), CAR T cells were counted. […] 8 rounds of stimulation were carried out during a 31 day culture period. For some rounds, at re-plating, cells were assessed for phenotypic markers via flow cytometry.
Culture conditions were reset every 3-4 days. Replating was maintained for 28 days or until the cell count was <50,000 cells. Experiments were performed in triplicate in 3 donors. […] Activation of CAR-T cells was measured on cells collected at days 4, 7, and 14 by flow cytometry for CD25.

Another assay relates to anti-BCMA CAR+ T cells. The experiment in a line: T cell markers on anti-BCMA CAR+ T cells stimulated with BCMA-conjugated beads. In kind it is cell-based, human. The method, then: Approximately 1.5×10^6 CAR+ T cells were added to wells of a 12-well plate and were incubated with beads from a 200 μg/ml BCMA-conjugated bead composition at a ratio of CAR+ T cell to BCMA-conjugated bead of 1:0.3, 1:1 or 1:3 (approximately 0.5×10^6, 1.5, 10^6, and 4.5×10^6 beads per well, respectively). As controls, 5 μg/mL anti-CD3 antibody was coated to wells (sub-optimal concentration for stimulation) or cells were seeded in the absence of any agent (no stimulation control). […] The cells were incubated for four days and then analyzed by flow cytometry for surface expression of CD4, CD8, Tim3, PD-1, CD25 and CD69.
In a further experiment, anti-BCMA CAR-T cell compositions produced substantially as described in Example 1 were plated in 96-well plates at a density of 5×10^5 cells per well. The tested CAR-T cell compositions contained, on average, approximately 45% anti-BCMA CAR+ cells at plating. Cells from each composition were incubated for 18 hours in the presence of beads from a 5 μg/ml, 50 μg/ml, or 200 μg/ml BCMA-conjugated bead composition at a ratio of 1:1 T cells to beads. As a control, cells were incubated with anti-CD3/anti-CD28 antibody-conjugated beads (positive control) or no added agent (negative control). […] Following the incubation, the cells were treated with reagents that allowed for extracellular and intracellular antibody staining by flow cytometry for the transcription factors Blimp1, EOMES, GATA-3, ikaros, helios, and Tbet and markers CD25, CD31, and PD-1.

Another assay relates to OPM-2. The assay is described as follows: Cytokine production of anti-BCMA CAR T cells incubated with OPM-2 target cells. Type of assay: cell-based, human.
In another assay the test system is anti-CD19 CAR+ T cells. The experiment in a line: IL-10 in supernatants of anti-CD19 CAR+ T cells incubated with K562-CD19 cells. Type of assay: cell-based, human. To be noted: E:T 3:1 or 9:1, 24 hours.
In another assay the test system is RPMI-8226. The conditions noted are these: read-out: sensitivity to lenalidomide; cited from earlier work.
A further assay deals with CAR-expressing T cells. The experiment in a line: RNA-seq and ATAC-seq of CAR-expressing T cells stimulated in the presence of lenalidomide. Type of assay: cell-based. The method, then: Directionality and significance of the effects on biological pathways are shown at 24 hours (FIG. 28A) or 7 days (FIG. 28B).
Importantly, the upregulation of IFN-γ and CD25 supported previous findings from chronic stimulation experiments.

Another assay concerns anti-BCMA CAR T cells. The experiment in a line: Proliferation and expansion of anti-BCMA CAR T cells stimulated with BCMA-conjugated beads. Type of assay: cell-based, human. The conditions noted are these: 5 μM. The method, then: To further assess proliferation, the cells containing anti-BCMA CAR-expressing T cells were labeled with the proliferation marker dye CELLTRACE VIOLET (CTV; ThermoFisher Scientific, Waltham MA) in accordance with the manufacturer's protocol prior to incubation with the BCMA-conjugated beads. Proliferation was assessed by dye dilution using flow cytometry on cells that were stimulated with beads from the 50 μg/mL BCMA-conjugated bead composition.
Four days and seven days after addition of BCMA-conjugated beads, the incubated cells were stained with CD4 or CD8 and with an anti-EGFR antibody to determine the percentage of cells positive for EGFRt as a surrogate for CAR+ T cells.

Assay [3] deals with PD-L1-mediated inhibition. The assay is described as follows: Cytokine production with BCMA/PD-L1 conjugated beads. In kind it is cell-based, human. To be noted: 1 μM, 24 hours, vs vehicle. The method, then:
In another study, to explore whether the lenalidomide-induced potentiation of CAR T activation and cytokine production could override PD-L1-mediated inhibition, cells were cultured in the presence of BCMA beads generated as described in Example 9, with or without additional conjugation of human recombinant PD-L1-Fc. […] Cytokine production was measured in the supernatant.

Each structure is given as a SMILES string.

The source of these data is patent US20250186503A1, “METHODS AND COMBINATIONS FOR TREATMENT AND T CELL MODULATION” (Juno Therapeutics, Inc., priority 2018, published 2025).

T1 sequence (Q13422 whole entry): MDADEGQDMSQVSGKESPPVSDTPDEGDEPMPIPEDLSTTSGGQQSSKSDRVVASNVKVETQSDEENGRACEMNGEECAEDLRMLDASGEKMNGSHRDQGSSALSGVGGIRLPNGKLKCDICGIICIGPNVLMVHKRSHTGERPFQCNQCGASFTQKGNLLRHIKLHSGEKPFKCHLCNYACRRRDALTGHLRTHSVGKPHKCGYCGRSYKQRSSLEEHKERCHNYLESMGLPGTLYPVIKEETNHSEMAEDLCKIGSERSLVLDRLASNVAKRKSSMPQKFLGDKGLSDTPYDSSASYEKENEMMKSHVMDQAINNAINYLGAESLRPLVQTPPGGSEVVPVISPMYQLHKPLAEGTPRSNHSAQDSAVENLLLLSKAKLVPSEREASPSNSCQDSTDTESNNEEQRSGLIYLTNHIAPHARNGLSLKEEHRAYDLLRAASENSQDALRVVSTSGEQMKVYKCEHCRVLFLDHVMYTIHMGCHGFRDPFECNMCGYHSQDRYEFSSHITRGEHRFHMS
T1 sequence (Q96SW2 whole entry): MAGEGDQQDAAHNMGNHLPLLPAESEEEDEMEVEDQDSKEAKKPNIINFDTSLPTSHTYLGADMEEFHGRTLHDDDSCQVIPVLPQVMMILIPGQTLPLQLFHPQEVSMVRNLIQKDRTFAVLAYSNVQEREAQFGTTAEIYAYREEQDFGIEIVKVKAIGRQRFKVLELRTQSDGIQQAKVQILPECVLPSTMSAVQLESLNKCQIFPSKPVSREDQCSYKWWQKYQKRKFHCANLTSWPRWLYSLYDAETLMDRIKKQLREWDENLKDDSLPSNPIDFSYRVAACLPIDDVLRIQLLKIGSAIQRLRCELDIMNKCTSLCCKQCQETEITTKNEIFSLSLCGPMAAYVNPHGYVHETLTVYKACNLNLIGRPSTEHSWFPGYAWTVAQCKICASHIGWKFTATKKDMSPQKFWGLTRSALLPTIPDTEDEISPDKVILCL
T1 sequence (Q16531 whole entry partner): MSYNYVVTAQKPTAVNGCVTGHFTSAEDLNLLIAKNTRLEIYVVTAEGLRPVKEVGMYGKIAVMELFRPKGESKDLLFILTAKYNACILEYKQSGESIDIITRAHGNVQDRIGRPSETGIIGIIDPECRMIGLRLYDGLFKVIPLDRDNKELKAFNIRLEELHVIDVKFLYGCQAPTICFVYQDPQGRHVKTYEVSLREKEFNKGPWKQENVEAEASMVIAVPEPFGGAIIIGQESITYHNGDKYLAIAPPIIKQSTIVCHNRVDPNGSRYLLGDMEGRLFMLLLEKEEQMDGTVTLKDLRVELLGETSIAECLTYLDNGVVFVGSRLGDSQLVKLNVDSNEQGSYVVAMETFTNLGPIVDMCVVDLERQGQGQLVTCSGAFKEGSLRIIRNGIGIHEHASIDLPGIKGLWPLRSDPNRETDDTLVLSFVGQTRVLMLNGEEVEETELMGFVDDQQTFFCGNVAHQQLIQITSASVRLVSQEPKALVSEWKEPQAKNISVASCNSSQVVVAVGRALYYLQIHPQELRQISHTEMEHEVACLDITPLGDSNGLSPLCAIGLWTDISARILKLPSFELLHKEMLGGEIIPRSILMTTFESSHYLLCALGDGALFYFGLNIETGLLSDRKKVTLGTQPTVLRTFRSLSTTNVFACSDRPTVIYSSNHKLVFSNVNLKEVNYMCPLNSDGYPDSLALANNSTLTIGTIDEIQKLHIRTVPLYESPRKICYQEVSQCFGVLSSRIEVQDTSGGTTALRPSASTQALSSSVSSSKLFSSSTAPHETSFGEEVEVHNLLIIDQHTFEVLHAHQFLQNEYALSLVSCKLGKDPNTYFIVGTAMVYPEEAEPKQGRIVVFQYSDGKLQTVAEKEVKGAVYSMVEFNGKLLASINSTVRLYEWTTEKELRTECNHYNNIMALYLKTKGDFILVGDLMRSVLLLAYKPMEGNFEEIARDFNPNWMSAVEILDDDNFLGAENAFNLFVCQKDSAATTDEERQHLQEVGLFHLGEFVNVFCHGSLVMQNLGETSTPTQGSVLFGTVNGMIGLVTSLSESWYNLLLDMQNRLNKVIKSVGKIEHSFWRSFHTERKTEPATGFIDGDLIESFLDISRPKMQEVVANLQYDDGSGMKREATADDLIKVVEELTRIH

Take `O=C1CC[C@H](N2Cc3c(OCc4ccc(CN5CCOCC5)cc4)cccc3C2=O)C(=O)N1` [Compound 2, (S)-3-[4-(4-morpholin-4-ylmethyl-benzyloxy)-1-oxo-1,3-dihydro-isoindol-2-yl]-piperidine-2,6-dione]: the “cytolytic activity and cytokine production of chronically stimulated anti-BCMA CAR T cells” value in assay [1] was “increased cytolytic activity”. Also, the A549.CD19 spheroid growth entry in assay [2] (0.001 μM, 0.01 μM, or 0.1 μM rescue, Day 9) is listed as “improved CAR T cell cytolytic”. In addition, the IFNγ in supernatant entry in [2] (5 days co-culture, rescue treatment) is “statistically significant increase”. The “number of CAR T cells in co-cultures with tumor spheroids” value in assay [2] (day 5) is listed as “increased”.
For the compound `Cc1nc2cccc(N)c2c(=O)n1C1CCC(=O)NC1=O` (stereo not shown) [Compound 1, 3-(5-amino-2-methyl-4-oxo-4H-quinazolin-3-yl)-piperidine-2,6-dione], in the assay on phosphorylated STAT5, the “median fluorescence intensity of phosphorylated STAT5 (pSTAT5)” value is given as “increased”. Moreover, the “reduction in Ikaros expression compared to lenalidomide” value on Ikaros is on record as “greater reduction”. For the same compound, the “intracellular Ikaros expression” value on Ikaros (CD4+ and CD8+ anti-CD19 CAR-expressing T cells) is “concentration-dependent decrease”.
For the compound `Nc1cccc2c1CN(C1CCC(=O)NC1=O)C2=O` (stereo not shown) [lenalidomide, 3-(4-amino-1-oxo-1,3-dihydro-2H-isoindol-2-yl)piperidine-2,6-dione], in the assay on MM1.S cells (0.1 μM, 3 donors, relative to controls), the “projected cell counts over 28 days” value is recorded as “increased”. Further, in the assay on MM1.S cells (0.1 μM, repeated stimulation), the “CAR T CD25 expression” value is given as “significant increase”; the “IL-2, IFN-γ and TNF-α production in the media” value was “significant increase”. Moreover, the “expansion of anti-BCMA CAR T cells by day 14” value in the assay on MM1.S cells (0.01-10 μM, E:T 1:2, all concentrations) is listed as “increased expansion”. Also, in the assay with MM1.S cells (beginning between day 21 and day 28), the “expansion of cells expressing two different human anti-BCMA CARs” value is “increase expansion”. Further, in the assay with MM1.S cells (concentration of lenalidomide), the “CAR-T expansion, each of six donors” value was “increase or no change”. The “expression level of Ikaros” value in the assay with anti-BCMA CAR+ T cells (0.5 μM or 5 μM, 18 hours, all conditions) is recorded as “decreased”. The “proliferative capacity of T cells (CTV dye)” value with anti-BCMA CAR+ T cells (5 μM, 200 μg BCMA beads 1:1, three days) was “increased”. Also, the “surface expression of CD25 in CD4+ and CD8+ T cells” value in the assay with anti-BCMA CAR+ T cells (BCMA-conjugated beads or anti-CD3 stimulation) is listed as “further increased”. The “IFNγ, IL-2 and TNF-α production and/or accumulation” value in the assay with OPM-2 (0.01-10 μM, E:T 1:1, 24 hours, dose-dependent) is recorded as “enhance”. Besides, the “IFN-γ, IL-2 and TNF-α production on co-culture with OPM-2” value with OPM-2 (all CAR T donors, concentration-dependent) was “significantly increased”. Moreover, in the assay with anti-CD19 CAR+ T cells, the “secretion and/or accumulation of IL-10 in supernatants” value was “dose-dependently increased”. Besides, the IC50 in the assay on RPMI-8226 is 6.43 µM. In the assay with CAR-expressing T cells (24 hours or 7 days), the “expression of genes involved in T cell activation and signaling (RNA-seq)” value was “increased expression of genes involved in T cell activation and signaling”. In the assay on CAR-expressing T cells (7 days of stimulation), the Th2-associated gene signatures result is given as “decreasing”; the “pathways associated with Th1 T-cell response and co-stimulation” value is on record as “upregulated”. In the assay with CAR-expressing T cells (7 days with stimulation), the “CD69 and CCR7 chromatin accessibility and gene transcription” value is “decrease”; the “chromatin accessibility at loci associated with IFN-γ and IL-2RA (CD25)” value is on record as “significant increase in chromatin accessibility”. Also, in the assay with anti-BCMA CAR T cells, the “extent of CAR+ T cell expansion (EGFRt+)” value is “did not substantially impact”. Moreover, the “total cell count at day 7” value in the assay with anti-BCMA CAR T cells (50 μg beads) is “small increase in proliferation”. The “secreted cytokine levels in the presence of PD-L1” value in assay [3] is “potentiated”.
